Read-outs that look alike come from different tables or passages of the source.
Tested on: phenyl-p-benzoquinone induced writhing in mice
Type: in vivo, mice (male CF1)
Conditions: oral, N=43 mice/dose; for % MICE BLOCKED: 5 min

Compound	% MICE BLOCKED (oxycodone HCl 0.36 mg/kg)	% MICE BLOCKED (oxycodone HCl 0.72 mg/kg)	% MICE BLOCKED (oxycodone HCl 1.44 mg/kg)	% MICE BLOCKED (oxycodone HCl 2.88 mg/kg)	% MICE BLOCKED (oxycodone HCl 5.76 mg/kg)	ED50 AT 5 MIN, Oxycodone (95% Confidence Limits) (oxycodone HCl part of the ED50 dose (alone or at fixed ratio oxycodone:ibuprofen))	% MICE BLOCKED (ibuprofen 2.25 mg/kg)	% MICE BLOCKED (ibuprofen 4.49 mg/kg)	% MICE BLOCKED (ibuprofen 8.98 mg/kg)	% MICE BLOCKED (ibuprofen 17.96 mg/kg)	ED50 AT 5 MIN, Ibuprofen (95% Confidence Limits) (ibuprofen part of the ED50 dose (alone or at fixed ratio oxycodone:ibuprofen))
COc1ccc2c3c1O[C@H]1C(=O)CC[C@@]4(O)[C@@H](C2)N(C)CC[C@]314 [Oxycodone]	11.6%	4.7%	39.5%	81.4%	95.3%	1.88 mg/kg					
CC(C)Cc1ccc(C(C)C(=O)O)cc1 (stereo not drawn) [Ibuprofen, α-methyl-4-(2-methylpropyl)benzeneacetic acid]							7.0%	11.6%	20.1%	62.8%	15.8 mg/kg

Reference: patent US4569937A, “Analgesic mixture of oxycodone and ibuprofen” (priority 1985, dated 1986)
